The text below walks through data of article PMC4915350 (Journal of Medicinal Chemistry, 2016).

Molecules are shown by their SMILES. pKi: −log10 of the molar value.

Assay [1] has as its system D3R. The note with it: concentrations up to 1 μM, data not shown; ref 22 (McCall et al. 2005); cited from earlier work.
For assay [2], the target named is D3R. As to conditions: read-out: Ki at D3R, previously reported; using [3H]spiperone; cited from earlier work.
The target in assay [3] is hD3R (Homo sapiens, UniProt P35462). The assay is described as follows: biochemical. The class given is binding.
In assay [4] the target is hD2R (Homo sapiens, UniProt P14416). The assay is described as follows: biochemical. The class given is binding.
Sequence of hD2R (P14416 whole entry): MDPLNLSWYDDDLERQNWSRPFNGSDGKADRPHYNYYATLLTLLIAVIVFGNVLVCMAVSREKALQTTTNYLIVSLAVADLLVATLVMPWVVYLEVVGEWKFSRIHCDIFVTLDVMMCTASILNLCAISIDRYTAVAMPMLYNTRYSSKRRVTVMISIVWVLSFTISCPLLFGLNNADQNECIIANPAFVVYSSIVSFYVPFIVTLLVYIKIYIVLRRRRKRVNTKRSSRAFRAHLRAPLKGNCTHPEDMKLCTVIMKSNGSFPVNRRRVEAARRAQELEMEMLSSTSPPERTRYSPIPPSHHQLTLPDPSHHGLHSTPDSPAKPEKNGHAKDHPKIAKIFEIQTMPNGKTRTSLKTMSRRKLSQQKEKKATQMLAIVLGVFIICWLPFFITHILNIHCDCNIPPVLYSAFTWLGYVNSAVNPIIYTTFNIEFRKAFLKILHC

Sequence of hD3R (P35462 whole entry): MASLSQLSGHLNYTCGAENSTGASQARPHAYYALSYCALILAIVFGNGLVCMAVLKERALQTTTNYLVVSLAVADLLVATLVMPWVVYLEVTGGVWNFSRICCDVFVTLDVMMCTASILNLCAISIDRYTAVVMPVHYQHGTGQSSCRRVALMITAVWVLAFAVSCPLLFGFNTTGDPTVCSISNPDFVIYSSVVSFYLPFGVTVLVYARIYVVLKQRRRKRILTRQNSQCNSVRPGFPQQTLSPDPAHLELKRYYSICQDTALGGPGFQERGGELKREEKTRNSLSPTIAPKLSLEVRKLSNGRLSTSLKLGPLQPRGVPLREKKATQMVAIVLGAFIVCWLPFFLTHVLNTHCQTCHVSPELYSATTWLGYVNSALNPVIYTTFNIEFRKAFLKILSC

As to `CN[C@@H]1Cc2cccc3[nH]c(=O)n(c23)C1` [Compound 1, (R)-5,6-dihydro-5-(methylamino)-4H-imidazo[4,5,1-ij]quinolin-2(1H)-one (Z)-2-butenedioate], the “activity in D3R-mediated mitogenesis assay, previously reported” value in assay [1] is “no activity was observed”. Moreover, in assay [2], the negative-log Ki (pKi) was 5.71.

With `N[C@@H]1Cc2cccc3[nH]c(=O)n(c23)C1` [Compound 12a, (R)-5-Amino-5,6-dihydro-4H-imidazo[4,5,1-ij]quinolin-2(1H)-one], in assay [3] ([3H]7-OH-DPAT as tracer), the “fold reduction of D3R affinity relative to 1” value is on record as ~6 fold. The “fold reduction of D2R affinity relative to 1” value in assay [4] was ~6 fold.

`CCCN(CCC)[C@@H]1Cc2cccc3nc(O)n(c23)C1` [Compound 14a, (R)-5-(Dipropylamino)-5,6-dihydro-4H-imidazo[4,5,1-ij]quinolin-2(1H)-one]: in assay [4], the “fold decrease of D2R affinity relative to 13” value is recorded as ~4 fold.

In the case of `CCCN(C)[C@@H]1Cc2cccc3[nH]c(=O)n(c23)C1` [Compound 14c, (R)-5-[Methyl(propyl)amino]-5,6-dihydro-4H-imidazo[4,5,1-ij]quinolin-2(1H)-one], in assay [4], the “D2R selectivity over D3R (D3R/D2R)” value was ~8 fold.

Regarding `CCCN(CCC)[C@@H]1Cc2cccc3c2n(c(=O)n3CCC)C1` [Compound 15, (R)-5-(Dipropylamino)-1-propyl-5,6-dihydro-4H-imidazo[4,5,1-ij]quinolin-2(1H)-one], the pKi in assay [3] and in assay [4] was ~8.52 in each case.
